Laboratory results as given in patent publication US20230340012A1, “NATURAL AND SYNTHETIC COMPOUNDS FOR TREATING CANCER AND OTHER DISEASES” (PACIFIC ARROW LIMITED, priority 2009, published 2023).

Each compound was assayed on cancer cells (assay: MTT cytotoxic assay of esterification products (Cytotoxicity activity)). Conditions: E4A esterified with Acetyl chloride (Acy = Acetyl), compounds isolated with HPLC.
Type: cell-based, human
Method in brief: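 Cytotoxicity was read by MTT (Carmichael method, modified), with cells seeded 24 h ahead of treatment. Sixteen human cancer lines spanning bone, lung, bladder, ovary, colon, pancreas, prostate, skin, mouth, kidney, breast, liver, brain, leukemia and cervix were used. Test samples were acyl chloride esterification products of triterpenes, as mixtures or HPLC-purified compounds.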

SMILES | Cytotoxicity activity
CC(=O)OCC1(C)C(O)CCC2(C)C1CCC1(C)C2CC=C2C3CC(C)(C)C(OC(C)=O)C(OC(C)=O)C3(COC(C)=O)C(O)CC21C (centres unmarked) [Compound H8] | weak
CC(=O)OCC1(C)C(OC(C)=O)CCC2(C)C1CCC1(C)C2CC=C2C3CC(C)(C)C(O)C(OC(C)=O)C3(COC(C)=O)C(O)CC21C (centres unmarked) [Compound H9] | weak
CC(=O)OCC1(C)C(OC(C)=O)CCC2(C)C1CCC1(C)C2CC=C2C3CC(C)(C)C(O)C(O)C3(COC(C)=O)C(OC(C)=O)CC21C (centres unmarked) [Compound H10] | weak
CC(=O)OCC1(C)C(OC(C)=O)CCC2(C)C1CCC1(C)C2CC=C2C3CC(C)(C)C(OC(C)=O)C(O)C3(COC(C)=O)C(O)CC21C (centres unmarked) [Compound H11] | weak
CC(=O)OCC1(C)C(O)CCC2(C)C1CCC1(C)C2CC=C2C3CC(C)(C)C(O)C(OC(C)=O)C3(COC(C)=O)C(OC(C)=O)CC21C (centres unmarked) [Compound H12] | weak
CC(=O)OCC1(C)C(O)CCC2(C)C1CCC1(C)C2CC=C2C3CC(C)(C)C(OC(C)=O)C(O)C3(COC(C)=O)C(OC(C)=O)CC21C (centres unmarked) [Compound H13] | weak
CC(=O)OCC1(C)C(OC(C)=O)CCC2(C)C1CCC1(C)C2CC=C2C3CC(C)(C)C(O)C(OC(C)=O)C3(COC(C)=O)C(O)CC21C (centres unmarked) [Compound H14] | weak
CC(=O)OCC1(C)C(OC(C)=O)CCC2(C)C1CCC1(C)C2CC=C2C3CC(C)(C)C(OC(C)=O)C(OC(C)=O)C3(COC(C)=O)C(O)CC21C (centres unmarked) [Compound H15] | weak
CC(=O)OCC1(C)C(O)CCC2(C)C1CCC1(C)C2CC=C2C3CC(C)(C)C(OC(C)=O)C(OC(C)=O)C3(COC(C)=O)C(OC(C)=O)CC21C (centres unmarked) [Compound H16] | weak
CC(=O)OCC1(C)C(OC(C)=O)CCC2(C)C1CCC1(C)C2CC=C2C3CC(C)(C)C(OC(C)=O)C(O)C3(COC(C)=O)C(OC(C)=O)CC21C (centres unmarked) [Compound H17] | weak
CC(=O)OCC1(C)C(OC(C)=O)CCC2(C)C1CCC1(C)C2CC=C2C3CC(C)(C)C(O)C(OC(C)=O)C3(COC(C)=O)C(OC(C)=O)CC21C (centres unmarked) [Compound H18] | weak
CC(=O)OCC1(C)C(OC(C)=O)CCC2(C)C1CCC1(C)C2CC=C2C3CC(C)(C)C(OC(C)=O)C(OC(C)=O)C3(COC(C)=O)C(OC(C)=O)CC21C (centres unmarked) [Compound H19] | none
CC(=O)OCC12C(O)CC3(C)C(=CCC4C5(C)CCC(O)C(C)(CO)C5CCC43C)C1CC(C)(C)C(OC(C)=O)C2OC(C)=O (centres unmarked) [Compound H20] | moderate
CC(=O)OCC1(C)C(O)CCC2(C)C1CCC1(C)C2CC=C2C3CC(C)(C)C(OC(C)=O)C(OC(C)=O)C3(CO)C(O)CC21C (centres unmarked) [Compound H21] | moderate
CC(=O)OC1C(OC(C)=O)C2(CO)C(OC(C)=O)CC3(C)C(=CCC4C5(C)CCC(O)C(C)(CO)C5CCC43C)C2CC1(C)C (centres unmarked) [Compound H22] | moderate
CC(=O)OC1C(OC(C)=O)C2(CO)C(O)CC3(C)C(=CCC4C5(C)CCC(OC(C)=O)C(C)(CO)C5CCC43C)C2CC1(C)C (centres unmarked) [Compound H23] | moderate
CC(=O)OC1C(OC(C)=O)C2(CO)C(O)CC3(C)C(=CCC4C5(C)CCC(O)C(C)(CO)C5CCC43C)C2CC1(C)C (centres unmarked) [Compound H24] | moderate
CC(=O)OCC12C(O)CC3(C)C(=CCC4C5(C)CCC(O)C(C)(CO)C5CCC43C)C1CC(C)(C)C(OC(C)=O)C2O (centres unmarked) [Compound H25] | moderate
CC(=O)OCC12C(O)CC3(C)C(=CCC4C5(C)CCC(O)C(C)(CO)C5CCC43C)C1CC(C)(C)C(O)C2OC(C)=O (centres unmarked) [Compound H26] | moderate
CC(=O)OCC12C(O)CC3(C)C(=CCC4C5(C)CCC(OC(C)=O)C(C)(CO)C5CCC43C)C1CC(C)(C)C(O)C2O (centres unmarked) [Compound H27] | moderate
CC(=O)OCC12C(OC(C)=O)CC3(C)C(=CCC4C5(C)CCC(O)C(C)(CO)C5CCC43C)C1CC(C)(C)C(O)C2O (centres unmarked) [Compound H28] | moderate
CC(=O)OCC1(C)C(O)CCC2(C)C1CCC1(C)C2CC=C2C3CC(C)(C)C(OC(C)=O)C(O)C3(CO)C(O)CC21C (centres unmarked) [Compound H29] | moderate
CC(=O)OCC1(C)C(O)CCC2(C)C1CCC1(C)C2CC=C2C3CC(C)(C)C(O)C(OC(C)=O)C3(CO)C(O)CC21C (centres unmarked) [Compound H30] | moderate
CC(=O)OCC1(C)C(OC(C)=O)CCC2(C)C1CCC1(C)C2CC=C2C3CC(C)(C)C(O)C(O)C3(CO)C(O)CC21C (centres unmarked) [Compound H31] | moderate
CC(=O)OCC1(C)C(O)CCC2(C)C1CCC1(C)C2CC=C2C3CC(C)(C)C(O)C(O)C3(CO)C(OC(C)=O)CC21C (centres unmarked) [Compound H32] | moderate

Same assay, conditions: E4A esterified with Crotonoyl chloride (Cro = Crotonoyl), compounds isolated with HPLC

SMILES | Cytotoxicity activity
CC=CC(=O)OCC1(C)C(O)CCC2(C)C1CCC1(C)C2CC=C2C3CC(C)(C)C(O)C(O)C3(CO)C(O)CC21C (centres unmarked) [Compound I1] | moderate
CC=CC(=O)OCC12C(O)CC3(C)C(=CCC4C5(C)CCC(O)C(C)(CO)C5CCC43C)C1CC(C)(C)C(O)C2O (centres unmarked) [Compound I2] | moderate
CC=CC(=O)OCC1(C)C(O)CCC2(C)C1CCC1(C)C2CC=C2C3CC(C)(C)C(O)C(O)C3(COC(=O)C=CC)C(O)CC21C (centres unmarked) [Compound I3] | strong
CC=CC(=O)OCC1(C)C(O)CCC2(C)C1CCC1(C)C2CC=C2C3CC(C)(C)C(OC(=O)C=CC)C(O)C3(COC(=O)C=CC)C(O)CC21C (centres unmarked) [Compound I4] | moderate
CC=CC(=O)OCC1(C)C(O)CCC2(C)C1CCC1(C)C2CC=C2C3CC(C)(C)C(O)C(OC(=O)C=CC)C3(COC(=O)C=CC)C(O)CC21C (centres unmarked) [Compound I5] | moderate
CC=CC(=O)OCC1(C)C(OC(=O)C=CC)CCC2(C)C1CCC1(C)C2CC=C2C3CC(C)(C)C(O)C(O)C3(COC(=O)C=CC)C(O)CC21C (centres unmarked) [Compound I6] | moderate
CC=CC(=O)OCC1(C)C(O)CCC2(C)C1CCC1(C)C2CC=C2C3CC(C)(C)C(O)C(O)C3(COC(=O)C=CC)C(OC(=O)C=CC)CC21C (centres unmarked) [Compound I7] | moderate
CC=CC(=O)OCC1(C)C(O)CCC2(C)C1CCC1(C)C2CC=C2C3CC(C)(C)C(OC(=O)C=CC)C(OC(=O)C=CC)C3(COC(=O)C=CC)C(O)CC21C (centres unmarked) [Compound I8] | weak
CC=CC(=O)OCC1(C)C(OC(=O)C=CC)CCC2(C)C1CCC1(C)C2CC=C2C3CC(C)(C)C(O)C(OC(=O)C=CC)C3(COC(=O)C=CC)C(O)CC21C (centres unmarked) [Compound I9] | weak
CC=CC(=O)OCC1(C)C(OC(=O)C=CC)CCC2(C)C1CCC1(C)C2CC=C2C3CC(C)(C)C(O)C(O)C3(COC(=O)C=CC)C(OC(=O)C=CC)CC21C (centres unmarked) [Compound I10] | weak
CC=CC(=O)OCC1(C)C(OC(=O)C=CC)CCC2(C)C1CCC1(C)C2CC=C2C3CC(C)(C)C(OC(=O)C=CC)C(O)C3(COC(=O)C=CC)C(O)CC21C (centres unmarked) [Compound I11] | weak
CC=CC(=O)OCC1(C)C(O)CCC2(C)C1CCC1(C)C2CC=C2C3CC(C)(C)C(O)C(OC(=O)C=CC)C3(COC(=O)C=CC)C(OC(=O)C=CC)CC21C (centres unmarked) [Compound I12] | weak
CC=CC(=O)OCC1(C)C(O)CCC2(C)C1CCC1(C)C2CC=C2C3CC(C)(C)C(OC(=O)C=CC)C(O)C3(COC(=O)C=CC)C(OC(=O)C=CC)CC21C (centres unmarked) [Compound I13] | weak
CC=CC(=O)OCC1(C)C(OC(=O)C=CC)CCC2(C)C1CCC1(C)C2CC=C2C3CC(C)(C)C(O)C(OC(=O)C=CC)C3(COC(=O)C=CC)C(O)CC21C (centres unmarked) [Compound I14] | weak
CC=CC(=O)OCC1(C)C(OC(=O)C=CC)CCC2(C)C1CCC1(C)C2CC=C2C3CC(C)(C)C(OC(=O)C=CC)C(OC(=O)C=CC)C3(COC(=O)C=CC)C(O)CC21C (centres unmarked) [Compound I15] | weak
CC=CC(=O)OCC1(C)C(O)CCC2(C)C1CCC1(C)C2CC=C2C3CC(C)(C)C(OC(=O)C=CC)C(OC(=O)C=CC)C3(COC(=O)C=CC)C(OC(=O)C=CC)CC21C (centres unmarked) [Compound I16] | weak
CC=CC(=O)OCC1(C)C(OC(=O)C=CC)CCC2(C)C1CCC1(C)C2CC=C2C3CC(C)(C)C(OC(=O)C=CC)C(O)C3(COC(=O)C=CC)C(OC(=O)C=CC)CC21C (centres unmarked) [Compound I17] | weak
CC=CC(=O)OCC1(C)C(OC(=O)C=CC)CCC2(C)C1CCC1(C)C2CC=C2C3CC(C)(C)C(O)C(OC(=O)C=CC)C3(COC(=O)C=CC)C(OC(=O)C=CC)CC21C (centres unmarked) [Compound I18] | weak
CC=CC(=O)OCC1(C)C(OC(=O)C=CC)CCC2(C)C1CCC1(C)C2CC=C2C3CC(C)(C)C(OC(=O)C=CC)C(OC(=O)C=CC)C3(COC(=O)C=CC)C(OC(=O)C=CC)CC21C (centres unmarked) [Compound I19] | none
CC=CC(=O)OCC12C(O)CC3(C)C(=CCC4C5(C)CCC(O)C(C)(CO)C5CCC43C)C1CC(C)(C)C(OC(=O)C=CC)C2OC(=O)C=CC (centres unmarked) [Compound I20] | moderate
CC=CC(=O)OCC1(C)C(O)CCC2(C)C1CCC1(C)C2CC=C2C3CC(C)(C)C(OC(=O)C=CC)C(OC(=O)C=CC)C3(CO)C(O)CC21C (centres unmarked) [Compound I21] | moderate
CC=CC(=O)OC1C(OC(=O)C=CC)C2(CO)C(OC(=O)C=CC)CC3(C)C(=CCC4C5(C)CCC(O)C(C)(CO)C5CCC43C)C2CC1(C)C (centres unmarked) [Compound I22] | moderate
CC=CC(=O)OC1C(OC(=O)C=CC)C2(CO)C(O)CC3(C)C(=CCC4C5(C)CCC(OC(=O)C=CC)C(C)(CO)C5CCC43C)C2CC1(C)C (centres unmarked) [Compound I23] | moderate
CC=CC(=O)OC1C(OC(=O)C=CC)C2(CO)C(O)CC3(C)C(=CCC4C5(C)CCC(O)C(C)(CO)C5CCC43C)C2CC1(C)C (centres unmarked) [Compound I24] | moderate
CC=CC(=O)OCC12C(O)CC3(C)C(=CCC4C5(C)CCC(O)C(C)(CO)C5CCC43C)C1CC(C)(C)C(OC(=O)C=CC)C2O (centres unmarked) [Compound I25] | moderate
